Experimental data from ChEMBL document CHEMBL1201862, “PubChem BioAssay data set” (2004).
The source made the active and inactive calls.

Legend:
[1] = M. tuberculosis H37Rv growth inhibitors, H37Rv strain (AID 1626); format: functional
[2] = target: T1, Bcl-2-like protein 10 (Homo sapiens, UniProt Q9HD36); assay: Bcl-B/TR3 peptide binding disruption – biochemical, fluorescence polarization, FITC-TR3 peptide, selectivity assay for Bfl-1 inhibitor project, primary screen (AID 748);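 note: fluorescence polarization from a fluorescein-labelled TR3 peptide binding purified Bcl-B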
T1 sequence (Q9HD36 whole entry): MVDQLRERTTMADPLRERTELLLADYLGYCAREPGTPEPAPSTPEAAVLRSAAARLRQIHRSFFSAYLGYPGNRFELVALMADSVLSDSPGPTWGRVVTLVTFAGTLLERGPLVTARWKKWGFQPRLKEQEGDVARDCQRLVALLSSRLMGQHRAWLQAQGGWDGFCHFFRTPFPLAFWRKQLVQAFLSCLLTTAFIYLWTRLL

[3] = target: T2, Carboxy-terminal domain RNA polymerase II polypeptide A small phosphatase 1 (Homo sapiens, UniProt Q9GZU7); assay: CTDSP1 inhibitors, concentration-response, biochemical, absorbance readout, ultra-high-throughput screen actives (AID 540297); format: functional
T2 sequence (Q9GZU7 whole entry): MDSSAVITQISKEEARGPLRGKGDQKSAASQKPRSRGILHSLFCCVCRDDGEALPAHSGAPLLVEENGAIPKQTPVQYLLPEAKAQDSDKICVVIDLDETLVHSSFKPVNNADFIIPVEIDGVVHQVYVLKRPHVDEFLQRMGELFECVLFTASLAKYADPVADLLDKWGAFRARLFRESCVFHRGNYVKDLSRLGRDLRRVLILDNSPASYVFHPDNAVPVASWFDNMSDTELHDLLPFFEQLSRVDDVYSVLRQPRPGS

[4] = target: T3, Mucolipin-3 (Homo sapiens, UniProt Q8TDD5); assay: Dose response cell-based high-throughput screening assay for agonists of the transient receptor potential channel ML3 (TRPML3). [Related pubchem assays: 1526, 1424, 1448 ]; format: functional
T3 sequence (Q8TDD5 whole entry): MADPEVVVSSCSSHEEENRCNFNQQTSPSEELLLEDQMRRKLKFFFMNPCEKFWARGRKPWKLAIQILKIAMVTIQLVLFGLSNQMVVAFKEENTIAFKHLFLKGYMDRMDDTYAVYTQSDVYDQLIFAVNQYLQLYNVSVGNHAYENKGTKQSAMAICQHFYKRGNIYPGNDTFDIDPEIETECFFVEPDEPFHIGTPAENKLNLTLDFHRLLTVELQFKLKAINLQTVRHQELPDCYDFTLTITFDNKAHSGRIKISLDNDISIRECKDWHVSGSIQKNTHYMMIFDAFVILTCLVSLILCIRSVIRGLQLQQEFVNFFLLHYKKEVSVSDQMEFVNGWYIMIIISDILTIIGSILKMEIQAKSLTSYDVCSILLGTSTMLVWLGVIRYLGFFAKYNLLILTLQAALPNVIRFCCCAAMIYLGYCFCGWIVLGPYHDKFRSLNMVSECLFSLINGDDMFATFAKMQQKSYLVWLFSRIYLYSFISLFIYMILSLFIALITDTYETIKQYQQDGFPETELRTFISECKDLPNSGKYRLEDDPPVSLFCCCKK

[5] = target: Ion channel NompC (Danio rerio, UniProt Q7T1G6); assay: Fluorescence counterscreen assay for TRPML3 agonists: dose response cell-based high-throughput screening assay to identify agonists of the transient receptor potential channel N1 (TRPN1). [Related pubchem assays: 1526, 1424, 1448 ]; format: functional
[6] = target: T4, DNA dC->dU-editing enzyme APOBEC-3A (Homo sapiens, UniProt P31941); assay: Dose Response confirmation of small molecule APOBEC3A DNA Deaminase Inhibitors via a fluorescence-based single-stranded DNA deaminase assay. [Related pubchem assays (depositor defined):AID493011, AID493024]; format: functional
T4 sequence (P31941 whole entry): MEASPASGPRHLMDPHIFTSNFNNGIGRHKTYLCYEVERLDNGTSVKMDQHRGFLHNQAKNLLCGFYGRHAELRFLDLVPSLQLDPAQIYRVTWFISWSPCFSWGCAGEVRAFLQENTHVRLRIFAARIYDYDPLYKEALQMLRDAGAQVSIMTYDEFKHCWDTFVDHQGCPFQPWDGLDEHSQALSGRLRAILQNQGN

[7] = target: T5, DNA dC->dU-editing enzyme APOBEC-3G (Homo sapiens, UniProt Q9HC16); format: functional
T5 sequence (Q9HC16 whole entry): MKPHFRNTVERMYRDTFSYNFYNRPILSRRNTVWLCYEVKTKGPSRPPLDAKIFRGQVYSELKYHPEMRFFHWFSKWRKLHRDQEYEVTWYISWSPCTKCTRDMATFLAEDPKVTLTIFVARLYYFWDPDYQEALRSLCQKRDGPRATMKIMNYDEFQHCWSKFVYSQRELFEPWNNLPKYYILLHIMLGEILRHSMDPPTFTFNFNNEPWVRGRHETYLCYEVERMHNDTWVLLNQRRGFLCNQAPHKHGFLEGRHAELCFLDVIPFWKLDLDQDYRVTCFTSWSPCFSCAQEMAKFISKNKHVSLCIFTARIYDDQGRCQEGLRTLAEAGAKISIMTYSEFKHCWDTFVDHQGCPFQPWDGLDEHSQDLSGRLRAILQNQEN

[8] = target: Galanin receptor type 3 (Homo sapiens, UniProt O60755); assay: Fluorescence-based cell-based primary high throughput dose response assay to identify antagonists of the Galanin Receptor 3 (GalR3).; format: functional
Galanin receptor type 3, sequence (O60755 whole entry): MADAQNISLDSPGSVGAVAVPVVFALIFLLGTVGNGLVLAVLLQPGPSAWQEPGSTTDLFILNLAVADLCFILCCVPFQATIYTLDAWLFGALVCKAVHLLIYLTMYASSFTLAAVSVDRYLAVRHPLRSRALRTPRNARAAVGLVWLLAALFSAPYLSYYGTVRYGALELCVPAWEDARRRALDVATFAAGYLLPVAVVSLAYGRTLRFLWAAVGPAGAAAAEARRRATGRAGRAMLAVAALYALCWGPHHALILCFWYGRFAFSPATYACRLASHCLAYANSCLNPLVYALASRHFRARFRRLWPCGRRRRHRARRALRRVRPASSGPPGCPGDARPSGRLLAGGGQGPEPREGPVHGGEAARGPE

[9] = cells; format: functional, cell-based; conditions: HEK-CNG
[10] = target: G-protein coupled receptor 35 (Homo sapiens, UniProt Q9HC97); assay: inhibition of zaprinast-stimulated GPR35 beta-arrestin translocation – imaging, U2OS, beta-arrestin-GFP, zaprinast agonist, primary screen (AID 2058); format: functional;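 note: antagonist potency meaning inhibition of agonist-induced arrestin redistribution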
G-protein coupled receptor 35, sequence (Q9HC97 whole entry): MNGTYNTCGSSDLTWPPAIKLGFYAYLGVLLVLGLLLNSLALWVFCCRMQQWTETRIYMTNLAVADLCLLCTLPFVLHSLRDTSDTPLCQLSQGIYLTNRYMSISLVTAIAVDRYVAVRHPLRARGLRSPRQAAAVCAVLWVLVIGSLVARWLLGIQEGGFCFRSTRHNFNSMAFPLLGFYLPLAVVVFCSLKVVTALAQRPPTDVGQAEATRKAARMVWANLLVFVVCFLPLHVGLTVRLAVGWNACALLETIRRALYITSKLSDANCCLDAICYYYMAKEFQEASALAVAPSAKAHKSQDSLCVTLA

[11] = test system: HEK293; assay: EBV LMP1 TES2 canonical NF-kB signalling blockers – cell-based, HEK293, luciferase, cherry-pick, dose response (AID 588343); format: functional; conditions: Homo sapiens
[12] = target: T6, RNA-binding protein pos-1 (Caenorhabditis elegans, UniProt G5EF15); assay: disruptors of C. elegans POS-1 RNA interaction – biochemical, fluorescence polarization, dose response (AID 1964);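 note: purified POS-1 fused to maltose binding protein made in E. coli; potency of compounds blocking POS-1 binding to fluorescent RNA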
T6 sequence (G5EF15 whole entry): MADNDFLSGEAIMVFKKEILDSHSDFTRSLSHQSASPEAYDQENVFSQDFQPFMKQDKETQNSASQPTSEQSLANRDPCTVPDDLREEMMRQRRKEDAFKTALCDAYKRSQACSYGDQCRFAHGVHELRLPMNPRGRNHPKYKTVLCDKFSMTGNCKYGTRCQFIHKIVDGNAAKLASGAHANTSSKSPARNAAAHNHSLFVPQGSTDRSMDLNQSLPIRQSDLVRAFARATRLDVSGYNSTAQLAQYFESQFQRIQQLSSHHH

[13] = target: T7, Zinc finger protein mex-5 (Caenorhabditis elegans, UniProt Q9XUB2); assay: potency of MEX-5 RNA-binding blockers – biochemical, C. elegans, fluorescence polarization, dose response (AID 1960)
T7 sequence (Q9XUB2 whole entry): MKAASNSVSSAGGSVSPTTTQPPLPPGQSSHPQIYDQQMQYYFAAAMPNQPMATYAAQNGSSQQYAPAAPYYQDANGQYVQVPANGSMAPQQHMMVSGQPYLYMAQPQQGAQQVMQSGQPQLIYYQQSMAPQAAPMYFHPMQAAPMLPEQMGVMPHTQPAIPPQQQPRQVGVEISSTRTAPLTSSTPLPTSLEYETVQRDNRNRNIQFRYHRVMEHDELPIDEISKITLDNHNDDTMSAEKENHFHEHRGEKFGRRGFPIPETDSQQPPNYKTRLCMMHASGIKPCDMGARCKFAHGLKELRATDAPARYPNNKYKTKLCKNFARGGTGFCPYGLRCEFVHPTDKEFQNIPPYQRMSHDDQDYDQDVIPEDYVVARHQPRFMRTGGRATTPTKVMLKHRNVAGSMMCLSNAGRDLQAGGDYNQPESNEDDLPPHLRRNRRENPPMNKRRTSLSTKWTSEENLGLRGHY

[14] = CCR5-tropic HIV-1 fusion blockers – cell-based, CCR5-tropic Env, dose response (AID 2279); format: functional
[15] = target: T8, Probable nicotinate-nucleotide adenylyltransferase (Staphylococcus aureus (strain N315), UniProt P65502); format: functional, Staphylococcus aureus subsp. aureus N315;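 for IC50 Mean: confirmatory dose-response retesting of NadD inhibitor hits first found in an ultra-high-throughput screen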
T8 sequence (P65502 whole entry): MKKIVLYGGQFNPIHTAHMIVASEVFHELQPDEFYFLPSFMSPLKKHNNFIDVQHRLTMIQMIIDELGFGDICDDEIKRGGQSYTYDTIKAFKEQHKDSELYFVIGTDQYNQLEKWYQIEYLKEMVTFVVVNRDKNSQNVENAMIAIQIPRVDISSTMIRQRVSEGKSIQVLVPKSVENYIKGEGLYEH

[16] = target: T8, Probable nicotinate-nucleotide adenylyltransferase; format: functional, Staphylococcus aureus subsp. aureus N315; conditions: read-out: IC50_Mean
[17] = target: T9, Fatty acid synthase (Homo sapiens, UniProt P49327); assay: inhibition of human FAS-TE enzyme activity – biochemical, endpoint fluorescence intensity, uHTS hits, dose response (AID 624327); format: functional;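 note: fluorescence from hydrolysis of an O-methyl fluorescein acyl ester substrate by the enzyme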
T9 sequence (P49327 whole entry): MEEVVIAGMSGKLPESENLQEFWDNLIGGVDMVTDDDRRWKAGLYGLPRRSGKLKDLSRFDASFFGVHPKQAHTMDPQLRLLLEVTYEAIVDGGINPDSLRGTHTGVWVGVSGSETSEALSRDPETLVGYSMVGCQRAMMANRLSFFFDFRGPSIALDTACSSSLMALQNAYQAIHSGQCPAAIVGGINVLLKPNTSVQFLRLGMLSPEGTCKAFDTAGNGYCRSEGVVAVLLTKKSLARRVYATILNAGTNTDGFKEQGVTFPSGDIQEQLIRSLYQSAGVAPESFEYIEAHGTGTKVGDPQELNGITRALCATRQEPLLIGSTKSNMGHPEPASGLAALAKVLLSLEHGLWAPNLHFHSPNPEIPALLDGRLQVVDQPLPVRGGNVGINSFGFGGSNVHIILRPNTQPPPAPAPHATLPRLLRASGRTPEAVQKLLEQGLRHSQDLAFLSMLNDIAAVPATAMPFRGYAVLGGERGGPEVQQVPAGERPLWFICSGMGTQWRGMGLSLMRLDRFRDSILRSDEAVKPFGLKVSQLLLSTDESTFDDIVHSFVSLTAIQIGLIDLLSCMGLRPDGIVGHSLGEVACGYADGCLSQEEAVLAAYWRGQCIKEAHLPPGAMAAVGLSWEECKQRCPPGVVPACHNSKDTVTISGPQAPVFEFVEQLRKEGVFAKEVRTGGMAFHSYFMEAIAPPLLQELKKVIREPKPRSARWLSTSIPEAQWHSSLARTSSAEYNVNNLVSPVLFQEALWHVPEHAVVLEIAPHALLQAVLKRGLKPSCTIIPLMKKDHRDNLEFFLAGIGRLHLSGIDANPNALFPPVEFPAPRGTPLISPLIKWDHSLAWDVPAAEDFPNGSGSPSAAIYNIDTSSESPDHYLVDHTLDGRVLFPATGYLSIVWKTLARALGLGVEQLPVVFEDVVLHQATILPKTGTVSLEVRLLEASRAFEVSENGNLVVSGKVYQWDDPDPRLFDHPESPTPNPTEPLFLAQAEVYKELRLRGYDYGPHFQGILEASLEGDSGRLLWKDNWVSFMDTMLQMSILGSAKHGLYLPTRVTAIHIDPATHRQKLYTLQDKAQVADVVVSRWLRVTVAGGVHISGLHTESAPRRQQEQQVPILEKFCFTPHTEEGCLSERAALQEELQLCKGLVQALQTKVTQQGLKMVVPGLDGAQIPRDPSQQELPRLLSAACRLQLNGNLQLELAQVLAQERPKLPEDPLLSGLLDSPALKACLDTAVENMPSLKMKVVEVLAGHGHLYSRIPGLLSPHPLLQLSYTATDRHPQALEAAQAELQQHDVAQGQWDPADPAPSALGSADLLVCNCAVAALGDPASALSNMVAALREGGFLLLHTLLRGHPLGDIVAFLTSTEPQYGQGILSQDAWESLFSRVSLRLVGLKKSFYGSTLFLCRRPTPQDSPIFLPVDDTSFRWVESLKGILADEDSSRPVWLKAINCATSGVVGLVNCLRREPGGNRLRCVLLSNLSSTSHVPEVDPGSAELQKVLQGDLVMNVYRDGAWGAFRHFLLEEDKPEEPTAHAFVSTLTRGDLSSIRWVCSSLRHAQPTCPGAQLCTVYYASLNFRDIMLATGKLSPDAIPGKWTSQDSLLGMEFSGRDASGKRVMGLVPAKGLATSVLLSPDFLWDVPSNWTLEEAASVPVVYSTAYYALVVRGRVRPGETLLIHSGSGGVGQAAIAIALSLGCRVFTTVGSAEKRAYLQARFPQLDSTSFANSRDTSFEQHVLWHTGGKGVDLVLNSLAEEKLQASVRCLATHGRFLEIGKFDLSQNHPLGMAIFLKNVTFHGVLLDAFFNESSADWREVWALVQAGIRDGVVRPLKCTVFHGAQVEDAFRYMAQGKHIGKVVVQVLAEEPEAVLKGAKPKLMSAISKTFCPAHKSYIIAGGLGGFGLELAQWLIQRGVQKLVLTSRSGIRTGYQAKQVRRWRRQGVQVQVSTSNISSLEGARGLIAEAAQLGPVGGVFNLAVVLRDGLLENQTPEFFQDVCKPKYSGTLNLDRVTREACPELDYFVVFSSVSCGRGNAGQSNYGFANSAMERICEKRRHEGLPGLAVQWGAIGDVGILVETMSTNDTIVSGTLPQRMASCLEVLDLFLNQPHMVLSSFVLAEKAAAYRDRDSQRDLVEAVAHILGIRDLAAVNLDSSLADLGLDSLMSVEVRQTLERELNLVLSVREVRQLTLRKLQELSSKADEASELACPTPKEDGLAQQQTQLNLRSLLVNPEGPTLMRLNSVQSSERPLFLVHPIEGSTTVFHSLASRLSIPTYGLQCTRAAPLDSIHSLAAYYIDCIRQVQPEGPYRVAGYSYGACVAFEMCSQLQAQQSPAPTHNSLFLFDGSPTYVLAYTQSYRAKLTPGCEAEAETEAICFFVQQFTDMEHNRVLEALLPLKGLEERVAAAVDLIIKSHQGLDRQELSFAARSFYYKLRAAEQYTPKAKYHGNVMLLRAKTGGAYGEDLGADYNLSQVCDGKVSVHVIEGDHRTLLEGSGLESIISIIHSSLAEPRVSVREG

[18] = target: T9, Fatty acid synthase; assay: inhibition of human FAS-TE enzyme activity – biochemical, kinetic fluorescence intensity, dose response (AID 624326); format: functional;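 note: rate of fluorescence rise from hydrolysis of a fluorogenic O-methyl fluorescein ester substrate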
[19] = target: T4, DNA dC->dU-editing enzyme APOBEC-3A; assay: A3A deaminase inhibition for selectivity – biochemical, dose response (AID 504722); format: functional
[20] = target: T5, DNA dC->dU-editing enzyme APOBEC-3G; assay: Dose Response confirmation of small molecule APOBEC3G DNA Deaminase Inhibitors via a fluorescence-based single-stranded DNA deaminase assay. [Related pubchem assays (depositor defined):AID493012, AID493028]; format: functional

In the case of `COc1ccc(N)cc1-n1cnnn1`, the IC50 [1] is reported as > 100 µM (active).

With `O=C(COC(=O)c1cncc(Br)c1)NCc1ccco1` the IC50 [2] was 46.9 µM (active) and the IC50 [3] was 4.6 µM (active).

In the case of `C[N+](C)(C)C/C=C1/COCO1`, the EC50 [4] is reported as 4.76 µM (active), the EC50 [5] is reported as 17.6 µM (not active) and the IC50 [6] is reported as 1.89 µM (active). The IC50 [7] was 1.89 µM (active), the IC50 [8] was > 29.9 µM (inactive) and the EC50 [9] was > 29.9 µM (inactive).

In the case of `CC1(C)Cc2c(ccc3ccccc23)/C(=C/C(=O)N2CCCCC2)N1`, the IC50 [10] is reported as 11 µM (inactive) and the AC50 [11] is reported as 26.1 µM (active).

In the case of `COc1cccc(C2C3CN(C)CC=C3C(C#N)=C(N)C2(C#N)C#N)c1OC` (stereo unspecified), the IC50 [10] is reported as 2.74 µM (active), the EC50 [12] is reported as 2.18 µM (inconclusive) and the EC50 [13] is reported as 8.49 µM (active).

With `COc1ccc(-c2csc(NC(=O)c3ccccc3NS(=O)(=O)c3ccc(C)cc3)n2)cc1` the IC50 [14] was 3.03 µM (active), the IC50 [15] was 6.12 µM (active) and the IC50 [16] was 60.1 µM (active). The IC50 [17] was 10.2 µM (active) and the IC50 [18] was 6.07 µM (active).

For `COCCCn1c(S)nnc1-c1ccc(Cl)cc1`, the IC50 [19] was > 100 µM (inactive) and the IC50 [20] was 4.57 µM (active).
